Source: patent publication US20240158446A1, “CYCLIC COMPOUND HAVING SELECTIVE INHIBITORY ACTION ON KRAS OVER HRAS AND NRAS” (CHUGAI SEIYAKU KABUSHIKI KAISHA, priority 2021, published 2024)
Where a SMILES comes first, the peptide text is derived from it. Bridges are numbered along the chain shown (N, C = ends). [ ]: non-standard residue; d: D form. hPhe(3-Cl-4-CF3) = N[C@@H](CCc1ccc(C(F)(F)F)c(Cl)c1)C(=O)O; NPrPhe(4-CF3) = CCCN[C@@H](Cc1ccc(C(F)(F)F)cc1)C(=O)O; NMeGly(cPent) = CN[C@H](C(=O)O)C1CCCC1; Pro(4,4-F2) = O=C(O)[C@@H]1CC(F)(F)CN1; Hyp = O=C(O)[C@@H]1C[C@@H](O)CN1; NMeD = CN[C@@H](CC(=O)O)C(=O)O; NMeL = CN[C@@H](CC(C)C)C(=O)O; Ac5c = NC1(C(=O)O)CCCC1; Aze = O=C(O)[C@@H]1CCN1; Ac4c = NC1(C(=O)O)CCC1; NEtG = CCNCC(=O)O; Sar = CNCC(=O)O

Tests used:
[1] = molecular target: GDP-bound NRAS wild-type protein (Homo sapiens, UniProt P01111); experiment: Binding to NRAS by surface plasmon resonance (SPR), Single Cycle Kinetics; settings: SPR, GDP-bound NRAS wild-type protein vs GDP-bound KRAS wild-type protein
Sequence of GDP-bound NRAS wild-type protein (P01111 whole entry): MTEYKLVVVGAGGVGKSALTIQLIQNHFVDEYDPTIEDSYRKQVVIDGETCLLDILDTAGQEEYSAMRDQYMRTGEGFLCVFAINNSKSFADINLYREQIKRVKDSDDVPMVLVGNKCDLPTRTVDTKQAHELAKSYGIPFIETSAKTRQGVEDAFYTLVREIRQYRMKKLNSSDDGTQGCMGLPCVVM

[2] = molecular target: GDP-bound KRAS wild-type protein (Homo sapiens, UniProt P01116); experiment: Binding to KRAS by surface plasmon resonance (SPR), Single Cycle Kinetics; settings: SPR Single Cycle Kinetics, GDP-bound KRAS wild-type protein, 1:1 binding model; read-out: KRAS KD
Sequence of GDP-bound KRAS wild-type protein (P01116 whole entry): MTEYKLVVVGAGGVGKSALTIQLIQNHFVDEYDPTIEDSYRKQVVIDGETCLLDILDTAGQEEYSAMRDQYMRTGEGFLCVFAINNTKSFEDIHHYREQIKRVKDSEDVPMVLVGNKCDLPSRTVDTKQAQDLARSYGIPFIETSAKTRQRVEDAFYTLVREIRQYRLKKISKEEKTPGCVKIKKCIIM

[3] = molecular target: GDP-bound HRAS wild-type protein (Homo sapiens, UniProt P01112); experiment: Binding to HRAS by surface plasmon resonance (SPR), Single Cycle Kinetics; settings: SPR, GDP-bound HRAS wild-type protein vs GDP-bound KRAS wild-type protein
Sequence of GDP-bound HRAS wild-type protein (P01112 whole entry): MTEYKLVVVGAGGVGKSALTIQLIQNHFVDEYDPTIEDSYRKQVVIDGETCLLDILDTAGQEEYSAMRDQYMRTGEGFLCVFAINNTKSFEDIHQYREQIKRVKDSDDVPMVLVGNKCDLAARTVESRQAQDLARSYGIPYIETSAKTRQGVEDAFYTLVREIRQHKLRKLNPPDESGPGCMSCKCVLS

Row | Structure (SMILES) | NRAS/KRAS (ratio of KD value with respect to NRAS to KD value with respect to KRAS) [1] | Kd [2] [nM] | HRAS/KRAS (ratio of KD value with respect to HRAS to KD value with respect to KRAS) [3]
1 | CCCN1C(=O)CN(C)C(=O)CN(CC)C(=O)[C@H]([C@@H](C)CC)NC(=O)[C@H](CC(C)C)N(C)C(=O)C[C@@H](C(=O)N(C)C)N(C)C(=O)[C@H](C2CCCC2)N(C)C(=O)C2(CCCC2)NC(=O)[C@@H]2CC(F)(F)CN2C(=O)[C@H](CCc2ccc(C(F)(F)F)c(Cl)c2)NC(=O)CN(C)C(=O)[C@@H]1Cc1ccc(C(F)(F)F)cc1 [PP0425] ([NMeL]I[NEtG][Sar][NPrPhe(4-CF3)][Sar][hPhe(3-Cl-4-CF3)][Pro(4,4-F2)][Ac5c][NMeGly(cPent)][NMeD]-NMe2; lactam N-11) | B (a compound having 3 or more and less than 10 is denoted as B) | 0.099 | C (A compound having a KD ratio of 0.1 or more and less than 3 is denoted as C)
2 | CCCN1C(=O)CN(C)C(=O)CN(CC)C(=O)[C@H]([C@@H](C)CC)NC(=O)[C@H](CC(C)C)N(C)C(=O)C[C@@H](C(=O)N(C)C)N(C)C(=O)[C@H](C2CCCC2)N(C)C(=O)C2(CCC2)NC(=O)[C@@H]2CC(F)(F)CN2C(=O)[C@H](CCc2ccc(C(F)(F)F)c(Cl)c2)NC(=O)CN(C)C(=O)[C@@H]1Cc1ccc(C(F)(F)F)cc1 [PP0426] ([NMeL]I[NEtG][Sar][NPrPhe(4-CF3)][Sar][hPhe(3-Cl-4-CF3)][Pro(4,4-F2)][Ac4c][NMeGly(cPent)][NMeD]-NMe2; lactam N-11) | C (A compound having a KD ratio of 0.1 or more and less than 3 is denoted as C) | 0.12 | C (A compound having a KD ratio of 0.1 or more and less than 3 is denoted as C)
3 | CCCN1C(=O)CN(C)C(=O)CN(CC)C(=O)[C@H]([C@@H](C)CC)NC(=O)[C@H](CC(C)C)N(C)C(=O)C[C@@H](C(=O)N(C)C)N(C)C(=O)[C@H](C2CCCC2)N(C)C(=O)C2(CCCC2)NC(=O)[C@@H]2C[C@@H](OCC)CN2C(=O)[C@H](CCc2ccc(C(F)(F)F)c(Cl)c2)NC(=O)CN(C)C(=O)[C@@H]1Cc1ccc(C(F)(F)F)cc1 [PP0427] ([NMeL]I[NEtG][Sar][NPrPhe(4-CF3)][Sar][hPhe(3-Cl-4-CF3)][Hyp](Et)[Ac5c][NMeGly(cPent)][NMeD]-NMe2; lactam N-11) | B (a compound having 3 or more and less than 10 is denoted as B) | 0.11 | C (A compound having a KD ratio of 0.1 or more and less than 3 is denoted as C)
4 | CCCN1C(=O)CN(C)C(=O)CN(CC)C(=O)[C@H]([C@@H](C)CC)NC(=O)[C@H](CC(C)C)N(C)C(=O)C[C@@H](C(=O)N(C)C)N(C)C(=O)[C@H](C2CCCC2)N(C)C(=O)C2(CCC2)NC(=O)[C@@H]2C[C@@H](OCC)CN2C(=O)[C@H](CCc2ccc(C(F)(F)F)c(Cl)c2)NC(=O)CN(C)C(=O)[C@@H]1Cc1ccc(C(F)(F)F)cc1 [PP0428] ([NMeL]I[NEtG][Sar][NPrPhe(4-CF3)][Sar][hPhe(3-Cl-4-CF3)][Hyp](Et)[Ac4c][NMeGly(cPent)][NMeD]-NMe2; lactam N-11) | B (a compound having 3 or more and less than 10 is denoted as B) | 0.063 | C (A compound having a KD ratio of 0.1 or more and less than 3 is denoted as C)
5 | CCCN1C(=O)CN(C)C(=O)[C@@H]2CCN2C(=O)[C@H]([C@@H](C)CC)NC(=O)[C@H](CC(C)C)N(C)C(=O)C[C@@H](C(=O)N(C)C)N(C)C(=O)[C@H](C2CCCC2)N(C)C(=O)C2(CCC2)NC(=O)[C@@H]2CCCN2C(=O)[C@H](CCc2ccc(C(F)(F)F)c(Cl)c2)NC(=O)CN(C)C(=O)[C@@H]1Cc1ccc(C(F)(F)F)cc1 [PP0430] ([NMeL]I[Aze][Sar][NPrPhe(4-CF3)][Sar][hPhe(3-Cl-4-CF3)]P[Ac4c][NMeGly(cPent)][NMeD]-NMe2; lactam N-11) | B (a compound having 3 or more and less than 10 is denoted as B) | 0.26 | B (a compound having 3 or more and less than 10 is denoted as B)
